Source: PubChem BioAssay AID2060496 (Molecular Pharmacology Branch, DTP, NCI, 2025)
pIC50: −log10 of the molar value.

Tested on: 276233-004-R-J1-PDC complex spheroid viability
Assay: Anticancer human tumor 276233-004-R-J1-PDC patient-derived colon adenocarcinoma cell line growth inhibition [GQUAD]
Conditions: for pIC50: curve of first compound; for viability, T/C: stronger effect = lower value
Method in brief: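 Multi-cell-type spheroids of tumor cells with HUVEC and mesenchymal stem cells, treated with drug combinations. Concentrations descend in half-log steps from near clinical Cmax, or from 10 microM where Cmax is unknown; viability read-out.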

[1] = second compound 0.0316 µM, first compound 0.0316 µM
[2] = second compound 0.0316 µM, first compound 0.1 µM
[3] = second compound 0.0316 µM, first compound 0.316 µM
[4] = second compound 0.0316 µM, first compound 1 µM
[5] = second compound 0.0316 µM, first compound 3.16 µM
[6] = second compound 0.0316 µM, first compound 10 µM
[7] = second compound 0.1 µM, first compound 0.0316 µM
[8] = second compound 0.1 µM, first compound 0.1 µM
[9] = second compound 0.1 µM, first compound 0.316 µM
[10] = second compound 0.1 µM, first compound 1 µM
[11] = second compound 0.1 µM, first compound 3.16 µM
[12] = second compound 0.1 µM, first compound 10 µM
[13] = second compound 0.316 µM, first compound 0.0316 µM
[14] = second compound 0.316 µM, first compound 0.1 µM
[15] = second compound 0.316 µM, first compound 0.316 µM
[16] = second compound 0.316 µM, first compound 1 µM
[17] = second compound 0.316 µM, first compound 3.16 µM
[18] = second compound 0.316 µM, first compound 10 µM
[19] = second compound 1 µM, first compound 0.0316 µM
[20] = second compound 1 µM, first compound 0.1 µM
[21] = second compound 1 µM, first compound 0.316 µM
[22] = second compound 1 µM, first compound 1 µM
[23] = second compound 1 µM, first compound 3.16 µM
[24] = second compound 1 µM, first compound 10 µM
[25] = second compound 3.16 µM, first compound 0.0316 µM
[26] = second compound 3.16 µM, first compound 0.1 µM
[27] = second compound 3.16 µM, first compound 0.316 µM
[28] = second compound 3.16 µM, first compound 1 µM
[29] = second compound 3.16 µM, first compound 3.16 µM
[30] = second compound 3.16 µM, first compound 10 µM
[31] = second compound 10 µM, first compound 0.0316 µM
[32] = second compound 10 µM, first compound 0.1 µM
[33] = second compound 10 µM, first compound 0.316 µM
[34] = second compound 10 µM, first compound 1 µM
[35] = second compound 10 µM, first compound 3.16 µM
[36] = second compound 10 µM, first compound 10 µM
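Note: spheroids exposed to drugs for seven days.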
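Throughout, for viability, T/C: 100% = DMSO vehicle control viability.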

COc1ncnc(C2CC2)c1-c1ncc2cnn(Cc3ccc(-c4nc(C(F)(F)F)cn4C(C)C)cc3)c2n1 + CN(C)c1ccc(Nc2c3ccc(NC(=O)CCN4CCCC4)cc3nc3cc(NC(=O)CCN4CCCC4)ccc23)cc1
pIC50 (second compound 0.0316 µM): < 5.00
pIC50 (second compound 0.1 µM): < 5.00
pIC50 (second compound 0.316 µM): < 5.00
pIC50 (second compound 1 µM): 7.50
pIC50 (second compound 3.16 µM): > 7.50
pIC50 (second compound 10 µM): > 7.50
viability, T/C [1]: 87.4%
viability, T/C [2]: 84.2%
viability, T/C [3]: 74.3%
viability, T/C [4]: 75.6%
viability, T/C [5]: 68.8%
viability, T/C [6]: 100%
viability, T/C [7]: 70.4%
viability, T/C [8]: 90.2%
viability, T/C [9]: 77.5%
viability, T/C [10]: 75.8%
viability, T/C [11]: 58.6%
viability, T/C [12]: 65.8%
viability, T/C [13]: 69.4%
viability, T/C [14]: 72.7%
viability, T/C [15]: 59.9%
viability, T/C [16]: 44%
viability, T/C [17]: 69.4%
viability, T/C [18]: 72.5%
viability, T/C [19]: 57.3%
viability, T/C [20]: 49.6%
viability, T/C [21]: 51.4%
viability, T/C [22]: 47%
viability, T/C [23]: 65.3%
viability, T/C [24]: 68.5%
viability, T/C [25]: 53.2%
viability, T/C [26]: 35.7%
viability, T/C [27]: 53.1%
viability, T/C [28]: 49.5%
viability, T/C [29]: 56.7%
viability, T/C [30]: 57.6%
viability, T/C [31]: 35.6%
viability, T/C [32]: 41.8%
viability, T/C [33]: 36.7%
viability, T/C [34]: 38.4%
viability, T/C [35]: 58.4%
viability, T/C [36]: 53.5%

COc1cccc2c1C(=O)c1c(O)c3c(c(O)c1C2=O)CC(O)(C(=O)CO)CC3OC1CC(N)C(O)C(C)O1 (stereo not given) + Cc1cnc(CNC(=O)c2c(=O)c3ccc(N4CCCN(C)CC4)nc3n3c2sc2ccccc23)cn1
pIC50 (second compound 0.0316 µM): 5.01
pIC50 (second compound 0.1 µM): 5.17
pIC50 (second compound 0.316 µM): 5.45
pIC50 (second compound 1 µM): 5.63
pIC50 (second compound 3.16 µM): 5.67
pIC50 (second compound 10 µM): 5.69
viability, T/C [1]: 81.5%
viability, T/C [2]: 87.3%
viability, T/C [3]: 86%
viability, T/C [4]: 67.1%
viability, T/C [5]: 79.6%
viability, T/C [6]: 48.6%
viability, T/C [7]: 79%
viability, T/C [8]: 94.9%
viability, T/C [9]: 72.2%
viability, T/C [10]: 87.9%
viability, T/C [11]: 66.3%
viability, T/C [12]: 41.9%
viability, T/C [13]: 80.4%
viability, T/C [14]: 92.3%
viability, T/C [15]: 87.2%
viability, T/C [16]: 78.3%
viability, T/C [17]: 51.8%
viability, T/C [18]: 35%
viability, T/C [19]: 78%
viability, T/C [20]: 95.8%
viability, T/C [21]: 83.1%
viability, T/C [22]: 73%
viability, T/C [23]: 41.8%
viability, T/C [24]: 24.4%
viability, T/C [25]: 78.1%
viability, T/C [26]: 78.8%
viability, T/C [27]: 77.4%
viability, T/C [28]: 60.4%
viability, T/C [29]: 44.5%
viability, T/C [30]: 13%
viability, T/C [31]: 73.2%
viability, T/C [32]: 60.6%
viability, T/C [33]: 64.5%
viability, T/C [34]: 69%
viability, T/C [35]: 39.4%
viability, T/C [36]: 13.5%

C=CCn1c(=O)c2cnc(Nc3ccc(N4CCN(C)CC4)cc3)nc2n1-c1cccc(C(C)(C)O)n1 + Cc1cnc(CNC(=O)c2c(=O)c3ccc(N4CCCN(C)CC4)nc3n3c2sc2ccccc23)cn1
pIC50 (second compound 0.0316 µM): < 5.00
pIC50 (second compound 0.1 µM): < 5.00
pIC50 (second compound 0.316 µM): < 5.00
pIC50 (second compound 1 µM): < 5.00
pIC50 (second compound 3.16 µM): < 5.00
pIC50 (second compound 10 µM): 5.08
viability, T/C [1]: 93.4%
viability, T/C [2]: 70.5%
viability, T/C [3]: 64.3%
viability, T/C [4]: 65.9%
viability, T/C [5]: 69.1%
viability, T/C [6]: 78%
viability, T/C [7]: 75.9%
viability, T/C [8]: 86%
viability, T/C [9]: 80.2%
viability, T/C [10]: 72.2%
viability, T/C [11]: 73.1%
viability, T/C [12]: 67.8%
viability, T/C [13]: 89.8%
viability, T/C [14]: 82.1%
viability, T/C [15]: 76%
viability, T/C [16]: 61.3%
viability, T/C [17]: 66%
viability, T/C [18]: 61.9%
viability, T/C [19]: 76.1%
viability, T/C [20]: 83%
viability, T/C [21]: 76.5%
viability, T/C [22]: 67.9%
viability, T/C [23]: 62%
viability, T/C [24]: 62.4%
viability, T/C [25]: 76.5%
viability, T/C [26]: 71.5%
viability, T/C [27]: 59.6%
viability, T/C [28]: 55.4%
viability, T/C [29]: 52.5%
viability, T/C [30]: 58%
viability, T/C [31]: 57.8%
viability, T/C [32]: 66.1%
viability, T/C [33]: 65.6%
viability, T/C [34]: 54.9%
viability, T/C [35]: 58.6%
viability, T/C [36]: 48.4%

CC1COCCN1c1cc(-c2ccnn2C)c2ccnc(-c3ccn[nH]3)c2n1 (stereo not given) + Cc1[nH]c2ccc(F)cc2c1-c1nc2c3cccnc3c3ncccc3c2[nH]1
pIC50 (second compound 0.0316 µM): < 5.00
pIC50 (second compound 0.1 µM): < 5.00
pIC50 (second compound 0.316 µM): < 5.00
pIC50 (second compound 1 µM): 5.14
pIC50 (second compound 3.16 µM): > 7.50
pIC50 (second compound 10 µM): > 7.50
viability, T/C [1]: 84.6%
viability, T/C [2]: 69.4%
viability, T/C [3]: 87%
viability, T/C [4]: 70.5%
viability, T/C [5]: 57.9%
viability, T/C [6]: 56.3%
viability, T/C [7]: 76.1%
viability, T/C [8]: 68%
viability, T/C [9]: 68.9%
viability, T/C [10]: 60%
viability, T/C [11]: 68.1%
viability, T/C [12]: 55.3%
viability, T/C [13]: 90.5%
viability, T/C [14]: 87.7%
viability, T/C [15]: 71.2%
viability, T/C [16]: 60.3%
viability, T/C [17]: 57%
viability, T/C [18]: 59.7%
viability, T/C [19]: 89.3%
viability, T/C [20]: 86.6%
viability, T/C [21]: 65.4%
viability, T/C [22]: 60.8%
viability, T/C [23]: 57.6%
viability, T/C [24]: 46.2%
viability, T/C [25]: 48.1%
viability, T/C [26]: 48.5%
viability, T/C [27]: 53.9%
viability, T/C [28]: 45.1%
viability, T/C [29]: 44.1%
viability, T/C [30]: 32.5%
viability, T/C [31]: 42%
viability, T/C [32]: 49.6%
viability, T/C [33]: 40.8%
viability, T/C [34]: 40.2%
viability, T/C [35]: 37.8%
viability, T/C [36]: 32.4%

O=C(c1cc(Cc2n[nH]c(=O)c3ccccc23)ccc1F)N1CCN(C(=O)C2CC2)CC1 + CN(C)c1ccc(Nc2c3ccc(NC(=O)CCN4CCCC4)cc3nc3cc(NC(=O)CCN4CCCC4)ccc23)cc1
pIC50 (second compound 0.0316 µM): < 5.00
pIC50 (second compound 0.1 µM): < 5.00
pIC50 (second compound 0.316 µM): < 5.00
pIC50 (second compound 1 µM): < 5.00
pIC50 (second compound 3.16 µM): < 5.00
pIC50 (second compound 10 µM): > 7.50
viability, T/C [1]: 76.4%
viability, T/C [2]: 83.4%
viability, T/C [3]: 91.8%
viability, T/C [4]: 125%
viability, T/C [5]: 77.4%
viability, T/C [6]: 82%
viability, T/C [7]: 98.9%
viability, T/C [8]: 100%
viability, T/C [9]: 97.6%
viability, T/C [10]: 84.4%
viability, T/C [11]: 76%
viability, T/C [12]: 88.1%
viability, T/C [13]: 75.5%
viability, T/C [14]: 73.8%
viability, T/C [15]: 69.5%
viability, T/C [16]: 65%
viability, T/C [17]: 81.4%
viability, T/C [18]: 68.6%
viability, T/C [19]: 71.4%
viability, T/C [20]: 55.4%
viability, T/C [21]: 49.8%
viability, T/C [22]: 52.9%
viability, T/C [23]: 52%
viability, T/C [24]: 55.5%
viability, T/C [25]: 52.7%
viability, T/C [26]: 53.4%
viability, T/C [27]: 52.1%
viability, T/C [28]: 55.6%
viability, T/C [29]: 48.5%
viability, T/C [30]: 53.1%
viability, T/C [31]: 41.7%
viability, T/C [32]: 63.3%
viability, T/C [33]: 48.9%
viability, T/C [34]: 57%
viability, T/C [35]: 55.2%
viability, T/C [36]: 67.3%
